Values of other authors as cited in PMC11322901 (Chemical Science, 2024).

What was measured:
GST = conditions: read-out: Ki of monovalent EA inhibitor
CaM(Ca2+) = CaM(Ca2+) (Mus musculus, UniProt P0DP26)

Compound | Ki (GST) | Affinity for CaM(Ca2+) (CaM(Ca2+))
C=C(CC)C(=O)c1ccc(OCC(=O)O)c(Cl)c1Cl [EA] | 1 to 5 µM | 
mastoparan |  | low nanomolar
